# Test results taken from patent US6281354A, “Analogs of duocarmycin and cc-1065” (The Scripps Research Institute, priority 1999, dated 2001).
# Test system: duplex DNA (w794, w836, c988, c820, c1346)
# Type: biochemical, SV40
# Details: for sequence preference at the alkylation site: consensus alkylation sequence; for concentration at which DNA is alkylated / more efficient DNA alkylation than (+)-N--BOC-DSA: natural enantiomers
SMILES,sequence preference at the alkylation site,concentration at which DNA is alkylated,more efficient DNA alkylation than (+)-N--BOC-DSA,unnatural enantiomer less effective at DNA alkylation than natural enantiomer,AT-rich adenine N3 alkylation selectivity (size of site) [base-pair],reaction time required for substantial or complete DNA alkylation (25-37° C.) [days]
"COC(=O)c1cc2c([nH]1)C(=O)C=C1N(C(C)=O)CC3CC123 (centres unmarked) [compound 40, Methyl 2-Acetyl-1,2,8,8a-tetrahydrocyclopropa[c]pyrrolo[3,2-e]indol-4-one-6-carboxylate]",5'-AA>5'-TA,10^-3 M,approximately 10 ×,approximately 10 ×,–,–
COC(=O)c1cc2c([nH]1)C(=O)C=C1N(C(=O)OC(C)(C)C)C[C@@H]3C[C@@]123 [ent-(-)-N--BOC-DSA],–,–,–,–,2,–
COC(=O)c1cc2c([nH]1)C(=O)C=C1N(C(=O)OC(C)(C)C)C[C@H]3C[C@]123 [(+)-N--BOC-DSA],–,–,–,–,2,–
"COC(=O)c1cc2c([nH]1)C(=O)C=C1N(C(=O)OC)CC3CC123 (centres unmarked) [compound 41, Methyl 2-(Methoxycarbonyl)-1,2,8,8a-tetrahydrocyclopropa[c]pyrrolo[3,2-e]indol-4-one-6-carboxylate]",5'-AA>5'-TA,10^-3 M,approximately 10 ×,approximately 10 ×,–,–
"COC(=O)c1cc2c([nH]1)C(=O)C=C1N(C(=O)c3cc4cc(OC)c(OC)c(OC)c4[nH]3)C[C@@H]3C[C@@]123 [ent-(-)-duocarmycin SA, reference compound]",–,–,–,–,3.5,–
COC(=O)c1cc2c([nH]1)C(=O)C=C1N(C(=O)OC(C)(C)C)CC3CC123 (centres unmarked) [N--BOC-DSA],5'-AA>5'-TA,–,–,–,2,2 to 7
